Values after ≈ are worked out from the molar mass of the structure shown. Where two headings read alike, the source gives them in different places.
Experiments:
[1] = tested on: S. aureus Smith; assay: Mouse systemic infection (septicemia) model, CD-1 mice; conditions: Staphylococcus aureus, in Mus musculus, 48 h; for responders at 3 mg/kg: iv, read-out: Percent survival at 48 hours, IV (3 mg/kg); for responders at 30 mg/kg: po, read-out: Percent survival at 48 hours, PO (30 mg/kg)
[2] = tested on: Gram-negative and Gram-positive organisms (clinical isolates); assay: Broth microdilution MIC against clinical isolates (CLSI M7-A8), Table 9; format: cell-based
[3] = Klebsiella aerogenes, Enterobacter aerogenes, n=30
[4] = Klebsiella pneumoniae, Klebsiella pneumonia, n=27
[5] = Salmonella species, n=30, read-out: MIC50
[6] = Stenotrophomonas maltophilia, n=29
[7] = Staphylococcus aureus, Staphylococcus aureus (MRSA PVL+), n=30, read-out: MIC90
[8] = Streptococcus intermedius, n=30
[9] = Streptococcus sanguis, n=18, read-out: MIC50
[10] = Streptococcus sanguis, n=18, read-out: MIC90

## CC[C@@H](C)N1Cc2c(O)c3c(c(C(F)(F)F)c2C1)C[C@H]1C[C@H]2[C@H](N(C)C)C(O)=C(C(N)=O)C(=O)[C@@]2(O)C(O)=C1C3=O [Compound 128]
[1]
  responders at 3 mg/kg: 17%
  responders at 30 mg/kg: 0%

## CCC(C)(C)N1Cc2c(O)c3c(c(N(C)C)c2C1)C[C@H]1C[C@H]2[C@H](N(C)C)C(O)=C(C(N)=O)C(=O)[C@@]2(O)C(O)=C1C3=O [Compound 103]
[1]
  responders at 3 mg/kg: 83%
  responders at 30 mg/kg: 100%

## CC(C)[C@H](C)N1Cc2c(O)c3c(c(F)c2C1)C[C@H]1C[C@H]2[C@H](N(C)C)C(O)=C(C(N)=O)C(=O)[C@@]2(O)C(O)=C1C3=O [Compound 137]
[1]
  responders at 3 mg/kg: 33%
  responders at 30 mg/kg: 33%

## CC(C)(O/N=C(\C(=O)N[C@@H]1C(=O)N2C(C(=O)[O-])=C(C[n+]3ccccc3)CS[C@H]12)c1csc(N)n1)C(=O)O [Ceftazidime]
[2]; Acinetobacter lwoffii, n=29
  MIC50: 1 µg/mL (≈ 1.83 µM)
  MIC90: 16 µg/mL (≈ 29.3 µM)
[2]; Enterobacter cloacae, n=29
  MIC50: > 64 µg/mL
  MIC90: > 64 µg/mL
[2]; Escherichia coli, n=40
  MIC50: 64 µg/mL (≈ 117 µM)
  MIC90: > 64 µg/mL
[2]; Kiebsielia oxytoca, n=30
  MIC50: ≤ 0.5 µg/mL
  MIC90: ≤ 0.5 µg/mL
[2]; [3]
  MIC50: ≤ 0.5 µg/mL
  MIC90: 16 µg/mL (≈ 29.3 µM)
[2]; [4]
  MIC50: > 64 µg/mL
  MIC90: > 64 µg/mL
[2]; Morganella morganii, n=30
  MIC50: ≤ 0.5 µg/mL
  MIC90: 4 µg/mL (≈ 7.32 µM)
[2]; Proteus vulgaris, n=29
  MIC50: ≤ 0.5 µg/mL
  MIC90: > 64 µg/mL
[2]; [5]
  MIC50: ≤ 0.5 µg/mL
[2]; Serratia marcescens, n=30
  MIC50: ≤ 0.5 µg/mL
  MIC90: ≤ 0.5 µg/mL
[2]; [6]
  MIC50: 8 µg/mL (≈ 14.6 µM)
  MIC90: > 64 µg/mL

## CC(C)[C@@H](C)N1Cc2c(O)c3c(c(F)c2C1)C[C@H]1C[C@H]2[C@H](N(C)C)C(O)=C(C(N)=O)C(=O)[C@@]2(O)C(O)=C1C3=O [Compound 106]
[1]
  responders at 3 mg/kg: 17%
  responders at 30 mg/kg: 20%

## CN(C)[C@@H]1C(O)=C(C(N)=O)C(=O)[C@@]2(O)C(O)=C3C(=O)c4c(O)c5c(c(C(F)(F)F)c4C[C@H]3C[C@@H]12)CN(C(C)(C)C)C5 [Compound 112]
[1]
  responders at 3 mg/kg: 100%
  responders at 30 mg/kg: 20%

## CC(C)N1Cc2c(O)c3c(c(C(F)(F)F)c2C1)C[C@H]1C[C@H]2[C@H](N(C)C)C(O)=C(C(N)=O)C(=O)[C@@]2(O)C(O)=C1C3=O [Compound 126]
[1]
  responders at 3 mg/kg: 83%
  responders at 30 mg/kg: 100%

## C[C@@H]1C(=O)Nc2c(O)c3c(c(F)c2CN1C)C[C@H]1C[C@H]2[C@H](N(C)C)C(O)=C(C(N)=O)C(=O)[C@@]2(O)C(O)=C1C3=O [Compound 406]
[1]
  responders at 3 mg/kg: 100%
  responders at 30 mg/kg: 40%

## C[C@@H](O)[C@H]1C(=O)N2C(C(=O)O)=C(S[C@@H]3CN[C@H](C(=O)Nc4cccc(C(=O)O)c4)C3)[C@H](C)[C@H]12 [Ertapenem]
[2]; Acinetobacter lwoffii, n=29, read-out: MIC50
  MIC50: ≤ 1 µg/mL
[2]; Acinetobacter lwoffii, n=29, read-out: MIC90
  MIC90: 4 µg/mL (≈ 8.41 µM)
[2]; Enterobacter cloacae, n=29
  MIC50: ≤ 1 µg/mL
  MIC90: > 8 µg/mL
[2]; Escherichia coli, n=40
  MIC50: ≤ 1 µg/mL
  MIC90: ≤ 1 µg/mL
[2]; Kiebsielia oxytoca, n=30
  MIC50: ≤ 1 µg/mL
  MIC90: ≤ 1 µg/mL
[2]; [3]
  MIC50: ≤ 1 µg/mL
  MIC90: ≤ 1 µg/mL
[2]; [4]
  MIC50: ≤ 1 µg/mL
  MIC90: 8 µg/mL (≈ 16.8 µM)
[2]; Morganella morganii, n=30
  MIC50: ≤ 1 µg/mL
  MIC90: ≤ 1 µg/mL
[2]; Proteus vulgaris, n=29
  MIC50: ≤ 1 µg/mL
  MIC90: ≤ 1 µg/mL
[2]; [5]
  MIC50: ≤ 1 µg/mL
[2]; Serratia marcescens, n=30
  MIC50: ≤ 1 µg/mL
  MIC90: ≤ 1 µg/mL
[2]; Staphylococcus aureus, Staphylococcus aureus (MRSA PVL+), n=30, read-out: MIC50
  MIC50: 4 µg/mL (≈ 8.41 µM)
[2]; [7]
  MIC90: 8 µg/mL (≈ 16.8 µM)
[2]; [6]
  MIC50: > 8 µg/mL
  MIC90: > 8 µg/mL
[2]; Streptococcus anginosus, n=20
  MIC50: 0.12 µg/mL (≈ 0.252 µM)
  MIC90: 0.25 µg/mL (≈ 0.526 µM)
[2]; [8]
  MIC50: 0.06 µg/mL (≈ 0.126 µM)
  MIC90: 0.5 µg/mL (≈ 1.05 µM)
[2]; Streptococcus mitis, n=29
  MIC50: 0.25 µg/mL (≈ 0.526 µM)
  MIC90: > 1 µg/mL
[2]; [9]
  MIC50: 0.12 µg/mL (≈ 0.252 µM)
[2]; [10]
  MIC90: 0.5 µg/mL (≈ 1.05 µM)

## CC(C)CN1CC(=O)Nc2c(O)c3c(c(F)c2C1)C[C@H]1C[C@H]2[C@H](N(C)C)C(O)=C(C(N)=O)C(=O)[C@@]2(O)C(O)=C1C3=O [Compound 400]
[1]
  responders at 3 mg/kg: 100%
  responders at 30 mg/kg: 0%

## CN[C@H](CC(C)C)C(=O)N[C@H]1C(=O)N[C@@H](CC(N)=O)C(=O)N[C@H]2C(=O)N[C@H]3C(=O)N[C@H](C(=O)N[C@H](C(=O)O)c4cc(O)cc(O)c4-c4cc3ccc4O)[C@H](O)c3ccc(c(Cl)c3)Oc3cc2cc(c3O[C@@H]2O[C@H](CO)[C@@H](O)[C@H](O)[C@H]2O[C@H]2C[C@](C)(N)[C@H](O)[C@H](C)O2)Oc2ccc(cc2Cl)[C@H]1O [Vancomycin, vancomycin]
[2]; Staphylococcus aureus (MRSA PVL+), n=30, read-out: MIC50
  MIC50: 1 µg/mL (≈ 0.69 µM)
[2]; [7]
  MIC90: 1 µg/mL (≈ 0.69 µM)
[2]; Staphylococcus aureus, Staphylococcus aureus MRSA (includes MRSA PVL+ group), n=105, read-out: MIC50
  MIC50: 1 µg/mL (≈ 0.69 µM)
[2]; Staphylococcus aureus, Staphylococcus aureus MRSA (includes MRSA PVL+ group), n=105, read-out: MIC90
  MIC90: 1 µg/mL (≈ 0.69 µM)
[2]; Streptococcus anginosus, n=20, read-out: MIC50
  MIC50: 0.5 µg/mL (≈ 0.345 µM)
[2]; Streptococcus anginosus, n=20, read-out: MIC90
  MIC90: 0.5 µg/mL (≈ 0.345 µM)
[2]; Streptococcus intermedius, n=30, read-out: MIC50
  MIC50: 0.5 µg/mL (≈ 0.345 µM)
[2]; Streptococcus intermedius, n=30, read-out: MIC90
  MIC90: 0.5 µg/mL (≈ 0.345 µM)
[2]; Streptococcus mitis, n=29, read-out: MIC50
  MIC50: 0.5 µg/mL (≈ 0.345 µM)
[2]; Streptococcus mitis, n=29, read-out: MIC90
  MIC90: 0.5 µg/mL (≈ 0.345 µM)
[2]; [9]
  MIC50: 0.5 µg/mL (≈ 0.345 µM)
[2]; [10]
  MIC90: 1 µg/mL (≈ 0.69 µM)

## colistin
[2]; Acinetobacter lwoffii, n=29
  MIC50: ≦0.12 μg/ml
  MIC90: >2 µg/mL
[2]; Enterobacter aerogenes, n=30
  MIC50: ≦0.12 μg/ml
  MIC90: ≦0.12 μg/ml
[2]; Enterobacter cloacae, n=29
  MIC50: ≦0.12 μg/ml
  MIC90: >2 µg/mL
[2]; Escherichia coli, n=40
  MIC50: 0.25 µg/mL
  MIC90: 0.5 µg/mL
[2]; Kiebsielia oxytoca, n=30
  MIC50: ≦0.12 μg/ml
  MIC90: 0.25 µg/mL
[2]; Klebsiella pneumonia, n=27
  MIC50: 0.25 µg/mL
  MIC90: 0.5 µg/mL
[2]; Morganella morganii, n=30
  MIC50: >2 µg/mL
  MIC90: >2 µg/mL
[2]; Proteus vulgaris, n=29
  MIC50: >2 µg/mL
  MIC90: >2 µg/mL
[2]; Salmonella species, n=30
  MIC50: ≦0.12 μg/ml
  MIC90: 0.5 µg/mL
[2]; Serratia marcescens, n=30
  MIC50: >2 µg/mL
  MIC90: >2 µg/mL
[2]; Shigella species, n=30
  MIC50: ≦0.12 μg/ml
  MIC90: ≦0.12 μg/ml
[2]; [6]
  MIC50: 0.25 µg/mL
  MIC90: >2 µg/mL

From US20170107179A1 (Tetraphase Pharmaceuticals, Inc., priority 2010, published 2017)
